Experiment [1] deals with AKT Thr308 phosphorylation. Kind of experiment: AKT Thr308 phosphorylation, Western blot in differentiated C2C12 cells. Format: cell-based, mouse. The note with it: C2C12, 37° C., 30 min; insulin 100 nM, metformin 16 mM, antroquinonol 25 μM; FIG. 3(A). The procedure: FIG. 3(A) provides the results of the AKT Thr308 phosphorylation induced by insulin, metformin (Met) and antroquinonol (Ant); wherein the differentiated C2C12 cells were incubated with 100 nM of insulin, 16 mM of metformin (Met), or 25 μM of antroquinonol (Ant) at 37° C. for 30 min, and then the cell lysates were separated by SDS-PAGE and blotted for phospho-AKT Thr308; wherein the data were expressed as means with standard errors of mean (mean±SEM), and different letters represent the significant differences (p<0.05) among the various treatments.
Mouse muscle myoblast cells (C2C12) were obtained from the Food Industry Research and Development Institute (FIRDI, Hsinchu, Taiwan). The cells were grown and maintained in Dulbecco's Modified Eagle's Medium containing high level of glucose (DMEM-high glucose; GIBCO, Carlsbad, Calif., USA) supplemented with 10% fetal bovine serum (FBS, GIBCO) and 1% penicillin streptomycin (GIBCO) in a cell culture incubator with 5% CO2 at 37° C. Prior to experiment, the cells were seeded and cultured at a density of 8×10^3 cells per well in 96-well plates or 2.5×10^5 cells per well in 6-well plates. […]
(§1) After treatments, the cells were collected and washed twice in cold KRH buffer (containing 50 mM HEPES, 137 mM NaCl, 4.8 mM KCl, 1.85 mM CaCl2, 1.3 mM MgSO4), and then lysed in ice-cold RIPA buffer (containing 50 mM Tris-HCl, pH 8.0, 150 mM NaCl, 5 mM NaF, 1% NP40, 1 mM sodium orthovanadate, 0.5% sodium deoxycholate, 0.1% sodium dodecyl sulphate (SDS), protease inhibitors, and phosphatase inhibitors (DE-68305, Roche, Mannheim, Germany)) and incubated at 4° C. for 60 min. After centrifugation of the cells at 12,000×g at 4° C. for 30 min, the supernatant was kept and quantified by Bradford protein assay (Bio-Rad, Hercules, Calif., USA). […] The signals were monitored using Western Lightning™ Plus-ECL (Perkin Elmer Life Sciences) and the PVDF membrane was exposed to Luminescent image analyzer (LAS)-3000 (Fujifilm, Minato, Tokyo, Japan). The acquired data were analyzed and compared the difference among various treatments. […]
Background: In western blotting, separated proteins are transferred to a membrane and probed.

Experiment [2] concerns AMPK Thr172 phosphorylation. In words: AMPK Thr172 phosphorylation, Western blot in differentiated C2C12 cells. Format: cell-based, mouse. The conditions noted are these: C2C12, 37° C., 30 min; insulin 100 nM, metformin 16 mM, antroquinonol 25 μM; FIG. 3(B). The protocol: FIG. 3(B) provides the results of AMPK Thr172 phosphorylation induced by insulin, metformin (Met) and antroquinonol (Ant); wherein the differentiated C2C12 cells were incubated with 100 nM of insulin, 16 mM of metformin (Met), or 25 μM of antroquinonol (Ant) at 37° C. for 30 min, and then the cell lysates were separated by SDS-PAGE and blotted for phospho-AMPK Thr172; wherein the data were expressed as means with standard errors of mean (mean±SEM), and different letters represent the significant differences (p<0.05) among the various treatments.
Mouse muscle myoblast cells (C2C12) were obtained from the Food Industry Research and Development Institute (FIRDI, Hsinchu, Taiwan). […]
After treatments, the cells were collected and washed twice in cold KRH buffer (containing 50 mM HEPES, 137 mM NaCl, 4.8 mM KCl, 1.85 mM CaCl2, 1.3 mM MgSO4), and then lysed in ice-cold RIPA buffer (containing 50 mM Tris-HCl, pH 8.0, 150 mM NaCl, 5 mM NaF, 1% NP40, 1 mM sodium orthovanadate, 0.5% sodium deoxycholate, 0.1% sodium dodecyl sulphate (SDS), protease inhibitors, and phosphatase inhibitors (DE-68305, Roche, Mannheim, Germany)) and incubated at 4° C. for 60 min. After centrifugation of the cells at 12,000×g at 4° C. for 30 min, the supernatant was kept and quantified by Bradford protein assay (Bio-Rad, Hercules, Calif., USA). […]

The test system of experiment [3] is C57 BL/6 mice. Kind of experiment: Oral glucose tolerance test in S961-induced insulin resistance mice. The note with it: D-glucose 2 g/kg; for hypoglycemic efficacy, OGTT blood glucose AUC: S961 50 nmol/kg Bwt, enantiomer 50 mg/kg Bwt p.o., FIG. 7(B). Format: in vivo, mouse. The procedure:
(§2) Animal experiments were approved by the National Dong-Hwa University Animal Ethics Committee and were used according to the “Guide for the Care and Use of Laboratory Animals” of National Dong-Hwa University. C57BL/6 mouse and Imprinting Control Region (ICR) mouse were obtained National Laboratory Animal Center (Taipei, Taiwan) and kept at controlled environmental conditions with room temperature (22±2° C.) and humidity (50±10%). The 12 h light (0600 am-1800 pm) and 12 h dark cycle was maintained throughout the study. Mice had free access to food and water and maintained on a standard laboratory diet (carbohydrates; 60%, proteins; 28%, lipids; 12%, vitamins; 3%).
(§3) Mice were employed to this test after fasting 12 h. Mice were treated with D-glucose by oral gavage (2 g/kg, p.o.). At approximately 0, 30, 60, 90, and 120 min, blood was sampled by venipuncture from the tail vein for the determining blood glucose. Blood glucose was immediately determined by the glucose oxidase method using glucose analyzer (Accu-Chek, Roche).
8 weeks old male C57 BL/6 mice were employed to this test after fasting 12 h. To investigate the effect of natural compounds on the 5961 (insulin receptor antagonist, Novo-Nordisk, Denmark) induced hyperglycemia, mice was intraperitoneally injected (i.p.) S961 (50 nmol/kg Bwt) at 15 min prior to oral gavaged (p.o.) with antroquinonol (dissolved in PEG and EtoH, 50 mg/kg Bwt) and D-glucose (2 g/kg Bwt). At approximately 0, 30, 60, 90, and 120 min, blood was sampled by venipuncture from the tail vein for OGTT test.

For experiment [4], the target named is T1, Dipeptidyl peptidase-4 (DPP4) (Homo sapiens, UniProt P27487).
T1 construct: purchased Enzo BML-AK498
T1 sequence (P27487 whole entry): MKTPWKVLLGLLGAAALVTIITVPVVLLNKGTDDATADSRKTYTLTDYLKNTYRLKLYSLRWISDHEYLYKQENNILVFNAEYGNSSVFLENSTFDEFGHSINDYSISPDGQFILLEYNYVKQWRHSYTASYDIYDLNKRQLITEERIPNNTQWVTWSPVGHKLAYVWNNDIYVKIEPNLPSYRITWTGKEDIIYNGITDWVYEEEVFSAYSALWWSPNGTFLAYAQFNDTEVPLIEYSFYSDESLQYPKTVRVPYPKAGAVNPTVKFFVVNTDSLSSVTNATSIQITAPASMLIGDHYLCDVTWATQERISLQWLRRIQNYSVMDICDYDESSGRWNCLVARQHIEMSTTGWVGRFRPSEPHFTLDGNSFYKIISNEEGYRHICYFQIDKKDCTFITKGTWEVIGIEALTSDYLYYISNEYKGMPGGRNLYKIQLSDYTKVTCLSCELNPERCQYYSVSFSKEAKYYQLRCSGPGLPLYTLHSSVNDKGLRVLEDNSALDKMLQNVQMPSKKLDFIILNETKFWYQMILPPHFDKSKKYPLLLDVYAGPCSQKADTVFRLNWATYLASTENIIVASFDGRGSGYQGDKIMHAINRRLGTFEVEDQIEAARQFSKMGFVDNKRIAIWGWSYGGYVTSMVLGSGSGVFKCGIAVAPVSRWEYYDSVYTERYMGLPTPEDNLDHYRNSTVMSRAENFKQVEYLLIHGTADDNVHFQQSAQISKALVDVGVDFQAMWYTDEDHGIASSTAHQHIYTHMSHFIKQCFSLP
Kind of experiment: DPP4 enzyme activity (DPPIV/CD26 Assay Kit). The experiment is classed as biochemical. The note with it: 100 μM, 30 min at RT; FIG. 2. The protocol:
Dipeptidyl peptidase-4 (DPP4), also known as adenosine deaminase complexing protein 2 or CD26 (cluster of differentiation 26), is […]. DPP4 enzyme activity was measured by a DPPIV/CD26 Assay Kit (BML-AK498, Enzo, N.Y., USA). This assay is based on the cleavage of the p-nitroaniline (pNA) from the chromogenic substrate (H-Gly-Pro-pNA) to increase the absorbance at 405 nm. Firstly 50 μL of assay buffer (50 mM Glycine, pH 8.7, 1 mM EDTA) per will was added into the 96-well clear microplate, and then 20 μL of DPP4 enzyme (13 μU/μL), 20 μL of tested inhibitors, 100 μM of antroquinonol or known clinical drug sitagliptin, and finally 10 μL of pNA substrate were added to each well sequentially. After an incubation of reaction mixture at room temperature (RT) for 30 min, the absorbance of each sample was read at 405 nm by the ELISA plate reader (Thermo Labsystems, Opsys MR, Thermo fisher scientific).

The test system of experiment [5] is DIO ICR mice. Kind of experiment: Long term glucose tolerance (OGTT) in diet-induced obesity (DIO) ICR mice. Format: in vivo, mouse. The conditions noted are these: antroquinonol 25 mg/kg Bwt versus Sitagliptin 10 mg/kg Bwt, q.o.d. for 4 weeks, FIG. 9. The protocol: as §2, §3
(§4) 8 weeks old ICR male mice were induced with high fat die and 60% fructose water for 10 weeks. […] Blood glucose was immediately determined by the glucose oxidase method using glucose analyzer (Accu-Chek, Roche), when blood sugar was sustained at higher level than 200 mg/dl after 120 min oral glucose that defined high blood sugar. […]

Experiment [6] deals with GLUT4 translocation. In words: Measurement of GLUT4 translocation in differentiated C2C12 cells. The experiment is classed as cell-based, mouse. The note with it: FIG. 5(A). The protocol:
Mouse muscle myoblast cells (C2C12) were obtained from the Food Industry Research and Development Institute (FIRDI, Hsinchu, Taiwan). The cells were grown and maintained in Dulbecco's Modified Eagle's Medium containing high level of glucose (DMEM-high glucose; GIBCO, Carlsbad, Calif., USA) supplemented with 10% fetal bovine serum (FBS, GIBCO) and 1% penicillin streptomycin (GIBCO) in a cell culture incubator with 5% CO2 at 37° C. Prior to experiment, the cells were seeded and cultured at a density of 8×10^3 cells per well in 96-well plates or 2.5×10^5 cells per well in 6-well plates. After the myoblasts achieved 80% confluence, the cells were incubated for 4 days in DMEM—high glucose supplemented with 1% FBS and 1% horse serum induced differentiation to myotubes.
C2C12 was fully differentiated with DMEM supplemented with 1% FBS and 1% horse serum for 4 days. The cells were washed twice with PBS containing 0.1% BSA and subsequently incubated in PBS with or without the treatment with 185 μM insulin (Ins), 16 mM metformin (Met), or 50, 100, and 150 μM of antroquinonol (Ant) for 55 min (n=5 in each group) respectively, and then placed on ice and immediately fixed with 1% glutaraldehyde in PBS at RT for 10 min. […] HRP activity was determined by measuring the absorbance at 450 nm with a spectrophotometer (EnSpire 2300 Multilabel Reader, Perkin Elmer, Waltham, Mass., USA). […]

The subject of experiment [7] is DIO ICR mice. Kind of experiment: Short term glucose tolerance (OGTT) in diet-induced obesity (DIO) ICR mice. The experiment is classed as in vivo, mouse. The conditions noted are these: antroquinonol 25 mg/kg Bwt versus Sitagliptin 20 mg/kg Bwt, 15 min before D-glucose 2 g/kg, FIG. 8. The protocol: as §2, §3, §4
The test system of experiment [8] is PKA protein level. Kind of experiment: Glucagon like peptide-1 induced PKA protein level, Western blot in AR42J cells. Format: cell-based, rat. The note with it: 5 μM and 20 μM, with 1 nM GLP-1 or 1 nM exendin-4, 48 h, FIG. 4. The procedure:
Rat pancreas tumor cells (AR42J) were obtained from the Food Industry Research and Development Institute (FIRDI, Hsinchu, Taiwan). The cells were grown and maintained in DMEM (GIBCO) supplemented with 20% fetal bovine serum (FBS, GIBCO) and 1% penicillin streptomycin (GIBCO) and 2 mM of L-glutamin in a cell culture incubator with 5% CO2 at 37° C. Prior to the experiments, the cells were seeded and cultured for 16-24 h.
as §1

The source of these data is patent US9604894B2, “Compounds from antrodia camphorate and their use in treatment of diabetes mellitus” (National Dong Hwa University, priority 2014, dated 2017).

Entries after “also recorded” stand apart in the source; their conditions may differ.

On to `CN(C)C(=N)N=C(N)N` [metformin, reference compound], for which the “AKT Thr308 phosphorylation” value in experiment [1] is reported as “not”. In experiment [2], the “AMPK Thr172 phosphorylation” value is recorded as “provided an effect in action to the phosphorylation of AMPK Thr172”.
For the compound `COC1=C(OC)[C@@H](O)[C@@H](C/C=C(\C)CC/C=C(\C)CCC=C(C)C)[C@H](C)C1=O` [(−)-antroquinonol], the “hypoglycemic efficacy, OGTT blood glucose AUC” value in experiment [3] was “had the hypoglycemic efficacy”.
insulin: in experiment [1], the “AKT Thr308 phosphorylation” value is “induced insulin signaling pathway at the phosphorylation of AKT Thr308”.
As to (+)-antroquinonol, the “hypoglycemic efficacy, OGTT blood glucose AUC” value in experiment [3] is “had the hypoglycemic efficacy”.
As for `COC1=C(OC)[C@H](O)[C@H](C/C=C(\C)CC/C=C(\C)CCC=C(C)C)[C@@H](C)C1=O` [antroquinonol], the “AKT Thr308 phosphorylation” value in experiment [1] is on record as “not”. The “inhibitory rate of DPP4 activity (compared to the control without treatment)” value in experiment [4] is “up to 50%”. Further, the “glucose tolerance, OGTT blood glucose AUC, long term” value in experiment [5] is on record as “effects similar to Sitagliptin”. Moreover, the “GLUT4 translocation, comparison with metformin” value in experiment [6] (C2C12, 100 μM of antroquinonol) was “equivalent to 16 mM metformin”. In experiment [6] (C2C12, antroquinonol 50, 100, 150 μM versus insulin 185 μM and metformin 16 mM, 55 min), the GLUT4 translocation result was “good effect on GLUT4 translocation similar to insulin (Ins), and which is even better than metformin (Met); also recorded: enhanced GLUT4 translocation with dose-dependent manner”. Moreover, the “hypoglycemic efficacy, OGTT blood glucose AUC (ratio to the control)” value in experiment [3] (S961-treated mice, antroquinonol 50 mg/kg Bwt p.o., metformin 100 mg/kg as positive control, FIG. 7(A)) is recorded as “had the hypoglycemic efficacy in the condition of insulin resistance through the oral glucose tolerance test (OGTT), similar to Metformin”. The “glucose tolerance, OGTT blood glucose AUC, short term” value in experiment [7] is on record as “effects similar to Sitagliptin”. Moreover, in experiment [8], the PKA protein level entry is “PKA protein level was expressed”. Further, in experiment [2], the “AMPK Thr172 phosphorylation” value was “significantly better efficacy on the phosphorylation of AMPK Thr172 than insulin and metformin”.
